Assay results as given in patent US20060281791A1, “Methods of increasing proliferation of adult mammalian cardiomyocytes through p38 map kinase inhibition” (CHILDREN'S MEDICAL CENTER CORPORATION, priority 2005, published 2006).
Where “and” joins values, the source holds several entries; their conditions need not be identical. Equal values may be shown once.

Test system: neonatal rat cardiomyocytes
Assay: cDNA microarray analysis (Affymetrix Rat Expression Set 230), x-fold changes of clustered genes
Assay type: cell-based
Settings: 72 h; experiments (1) and (2); listed as FGF
Protocol: Animal experiments were performed in accordance with guidelines of Children's Hospital, Boston and UCLA. Ventricular cardiomyocytes from fetal (E19), 2-day-old (P2) and adult (250-350 g) Wistar rats (Charles River) were isolated as described with minor modifications (Engel et al. 1999; Engel et al. 2003). After digestion of fetal or neonatal hearts (0.14 mg/ml collagenase II (Invitrogen), 0.55 mg/ml pancreatin (Sigma)) cells were cultured in DMEM/F12 (GIBCO) containing 3 mM Na-pyruvate, 0.2% BSA, 0.1 mM ascorbic acid (Sigma), 0.5% Insulin-Transferrin-Selenium (100×), penicillin (100 U/ml), streptomycin (100 μg/ml), and 2 mM L-glutamine (GIBCO). Adult cardiomyocytes were cultured for 1 day in standard medium (DMEM, 25 mM Hepes, 5 mM taurine, 5 mM creatine, 2 mM L-carnitine (Sigma), 20 U/ml insulin (GIBCO), 0.2% BSA, penicillin (100 U/ml), and streptomycin (100 μg/ml)). Cells were stimulated in culture medium without BSA containing 2 mM L-glutamine. Neonatal and adult cardiomyocytes were initially cultured for 48 h in the presence of 20 μM cytosine β-D-arabinofuranoside (araC, Sigma) and 5% horse serum before stimulation to prevent proliferation of non-myocytes. Adult cardiomyocytes were incubated another 3 days with araC during stimulation. Neonatal cardiomyocytes were stimulated every day with growth factors for BrdU and H3P analyses (FGF1 and NRG-1-1β at 50 ng/ml, IL-1β at 100 ng/ml, R&D Systems, all diluted in 0.1% BSA/PBS). SB203580 and LY294002 (Calbiochem) was added every day. Adult cardiomyocytes were stimulated with fresh medium and SB203580 every 3 days.
RNA of neonatal cardiomyocytes was prepared 72 h after stimulation using Trizol (Invitrogen). RT-PCR was performed following standard protocols (Supplemental Table S4). Affymetrix technology was applied using the Rat Expression Set 230.
To determine the effect of p38 inhibition on cardiomyocyte differentiation and proliferation, a specific inhibitor of p38α and p38β, SB203580, was used and evaluated using cDNA microarray analyses using neonatal rat cardiomyocytes. […] Expression changes of a subset of genes were validated by RT-PCR.
Stimulation of neonatal cardiomyocytes with FGF1 induces fetal gene expression. To determine if FGF1, in combination with p38 inhibition, can reverse differentiation and induce cell cycle re-entry, we repeated cDNA microarray analyses (Supplemental Table S1). […]

Nuclear receptor co-activator NRIF3 expression, x-fold change: 1.4 x-fold and 1.2 x-fold | PTP-RL9, receptor-type protein tyrosine phosphatase expression, x-fold change: 1.1 x-fold and 0.8 x-fold | Protein-tyrosine phosphatase expression, x-fold change: 0.5 x-fold and 0.6 x-fold | RNA binding motif protein 5 expression, x-fold change: 0.6 x-fold and 0.5 x-fold | Rac GTPase-activating protein 1 expression, x-fold change: 1.3 x-fold and 1.9 x-fold | Retinoic acid receptor, gamma expression, x-fold change: 0.6 x-fold and 1.0 x-fold | Rho family GTPase 1 expression, x-fold change: 4.1 x-fold and 3.9 x-fold | SPARC related modular calcium binding 2 expression, x-fold change: 0.3 x-fold and 0.4 x-fold | Shc SH2-domain binding protein 1 expression, x-fold change: 1.6 x-fold and 1.1 x-fold | Soluble fibroblast growth factor receptor IIIb (sKGF-R gene) expression, x-fold change: 0.9 x-fold and 0.8 x-fold | Thymidine kinase expression, x-fold change: 1.5 x-fold and 1.9 x-fold | Topoisomerase (DNA) II alpha expression, x-fold change: 1.8 x-fold and 1.7 x-fold | Transferrin receptor expression, x-fold change: 2.9 x-fold and 1.6 x-fold | VEGF receptor-2FLK-1 expression, x-fold change: 1.8 x-fold and 1.6 x-fold
Substance: FGF1: growth factor FGF1 (R&D Systems)
Growth response protein (CL-6) expression, x-fold change: 2.5 x-fold and 1.8 x-fold | Hepatocyte F2alpha receptor expression, x-fold change: 0.9 x-fold and 1.0 x-fold | IBP6 expression, x-fold change: 0.6 x-fold and 0.9 x-fold | IGF1 expression, x-fold change: 0.5 x-fold and 0.3 x-fold | IGFBP3 expression, x-fold change: 0.3 x-fold and 0.4 x-fold | IL12a expression, x-fold change: 2.9 x-fold and 2.8 x-fold | IRX4 expression, x-fold change: 0.7 x-fold and 0.9 x-fold | Id1 expression, x-fold change: 2.7 x-fold and 2.3 x-fold | Id3a expression, x-fold change: 2.4 x-fold and 1.9 x-fold | Integrin, alpha 6 expression, x-fold change: 2.4 x-fold and 2.5 x-fold | Integrin, alpha 11 expression, x-fold change: 1.7 x-fold and 1.2 x-fold | Jag1 expression, x-fold change: 0.4 x-fold and 0.6 x-fold | Ki67 expression, x-fold change: 1.7 x-fold and 1.5 x-fold | Kinesin family member 22 expression, x-fold change: 1.6 x-fold and 1.7 x-fold | Kinetochore-associated protein 1 expression, x-fold change: 1.9 x-fold and 2.1 x-fold | Kruppel-like factor 2 expression, x-fold change: 0.7 x-fold and 0.9 x-fold | LDLR expression, x-fold change: 4.0 x-fold and 2.7 x-fold | Lgals1 expression, x-fold change: 1.8 x-fold and 1.7 x-fold | Lgals9 expression, x-fold change: 4.3 x-fold and 3.1 x-fold | Lhcgr expression, x-fold change: 0.4 x-fold and 0.8 x-fold | Lisch7 expression, x-fold change: 0.6 x-fold and 0.8 x-fold | Lot1 expression, x-fold change: 0.3 x-fold and 0.4 x-fold | M-protein expression, x-fold change: 8.7 x-fold and 11.0 x-fold | MAD2-LIKE 1 expression, x-fold change: 1.5 x-fold and 2.8 x-fold | MCAK expression, x-fold change: 1.8 x-fold and 1.7 x-fold | MCIP1 expression, x-fold change: 3.0 x-fold and 3.3 x-fold | MCP-3 expression, x-fold change: 1.3 x-fold and 0.7 x-fold | MDP77 expression, x-fold change: 1.5 x-fold and 0.8 x-fold | MKK6 expression, x-fold change: 0.2 x-fold and 0.1 x-fold | MLC1, atrial isoform expression, x-fold change: 3.3 x-fold and 2.8 x-fold | MLC 2a expression, x-fold change: 2.7 x-fold and 2.1 x-fold | MLC3, alkali expression, x-fold change: 13.9 x-fold and 23.2 x-fold | MPP1 expression, x-fold change: 1.4 x-fold and 2.0 x-fold | MURF1 expression, x-fold change: 0.6 x-fold and 0.5 x-fold | MURF expression, x-fold change: 0.8 x-fold and 0.9 x-fold | Mapt expression, x-fold change: 1.7 x-fold and 1.9 x-fold | Mdk expression, x-fold change: 0.4 x-fold and 0.6 x-fold | Melusin expression, x-fold change: 3.8 x-fold and 3.0 x-fold | Moesin expression, x-fold change: 2.2 x-fold and 2.4 x-fold | Multi PDZ domain protein 1 expression, x-fold change: 0.3 x-fold and 0.6 x-fold | Mustang expression, x-fold change: 4.8 x-fold and 5.2 x-fold | Myopodin expression, x-fold change: 3.7 x-fold and 3.2 x-fold | NppB expression, x-fold change: 10.4 x-fold and 11.6 x-fold | Nppa expression, x-fold change: 3.1 x-fold and 3.5 x-fold | Nr1h3 expression, x-fold change: 0.7 x-fold and 0.6 x-fold | Nrtn expression, x-fold change: 0.4 x-fold and 0.6 x-fold | Ntf3 expression, x-fold change: 0.2 x-fold and 0.3 x-fold | NuSAP expression, x-fold change: 1.5 x-fold and 1.4 x-fold | Osteoblast specific factor expression, x-fold change: 0.3 x-fold and 0.2 x-fold | P57 expression, x-fold change: 0.2 x-fold and 0.3 x-fold | PAPIN expression, x-fold change: 0.5 x-fold and 0.7 x-fold | PEA-15 expression, x-fold change: 2.5 x-fold and 2.1 x-fold | PRKAR2 expression, x-fold change: 1.6 x-fold and 1.2 x-fold | Pdcd4 expression, x-fold change: 0.8 x-fold and 0.7 x-fold | Pdgfra expression, x-fold change: 0.4 x-fold and 0.3 x-fold | Pem expression, x-fold change: 0.9 x-fold and 0.7 x-fold | Plasminogen activator inhibitor 1 expression, x-fold change: 5.3 x-fold and 8.8 x-fold | Pleiotrophin expression, x-fold change: 0.2 x-fold and 0.1 x-fold | Polyamine-modulated factor 1 expression, x-fold change: 1.5 x-fold and 1.4 x-fold | Prc1 expression, x-fold change: 2.4 x-fold and 1.9 x-fold | Prg-1 expression, x-fold change: 0.2 x-fold and 0.3 x-fold | Protease inhibitor 7 expression, x-fold change: 1.3 x-fold and 0.8 x-fold | Ptpla expression, x-fold change: 3.3 x-fold and 2.2 x-fold | Ptprc/CD45 expression, x-fold change: 0.5 x-fold and 0.7 x-fold | RAC2 expression, x-fold change: 0.7 x-fold and 0.6 x-fold | RAD51 expression, x-fold change: 1.5 x-fold and 1.0 x-fold | ROC2 expression, x-fold change: 1.6 x-fold and 2.4 x-fold | Retinoic acid inducible protein 3 expression, x-fold change: 1.5 x-fold and 1.3 x-fold | Rgpr expression, x-fold change: 0.6 x-fold and 0.9 x-fold | Rgs3 expression, x-fold change: 1.3 x-fold and 1.9 x-fold | Rho-related BTB domain containing 3 expression, x-fold change: 0.5 x-fold and 0.6 x-fold | SHARP-1/dec2/Bhlhb3 expression, x-fold change: 0.2 x-fold and 0.3 x-fold | STK38 expression, x-fold change: 3.9 x-fold and 2.0 x-fold | STk18 expression, x-fold change: 1.3 x-fold and 1.9 x-fold | Semaphorin 4B expression, x-fold change: 0.6 x-fold and 0.5 x-fold | Semaphorin 6D-1 expression, x-fold change: 0.5 x-fold and 0.3 x-fold | Sh3kbp1 expression, x-fold change: 1.1 x-fold and 0.9 x-fold | Smooth muscle 22 protein expression, x-fold change: 1.2 x-fold and 1.4 x-fold | Snf1lk expression, x-fold change: 3.5 x-fold and 3.9 x-fold | Sox4 expression, x-fold change: 0.7 x-fold and 0.6 x-fold | Sox11 expression, x-fold change: 0.9 x-fold and 1.3 x-fold | Spag5 expression, x-fold change: 1.4 x-fold and 1.9 x-fold | Sponf expression, x-fold change: 0.2 x-fold and 0.3 x-fold | Stathmin expression, x-fold change: 1.2 x-fold and 1.6 x-fold | TBX2 expression, x-fold change: 1.8 x-fold and 2.0 x-fold | Testin expression, x-fold change: 0.6 x-fold and 0.7 x-fold | Tgf beta 2 expression, x-fold change: 1.4 x-fold and 1.5 x-fold | Tgfbr2 expression, x-fold change: 0.5 x-fold and 0.9 x-fold | Tieg expression, x-fold change: 0.3 x-fold and 0.4 x-fold | Tmeff1 expression, x-fold change: 2.1 x-fold and 2.4 x-fold | Tnfrsf12a expression, x-fold change: 3.7 x-fold and 3.3 x-fold | Tspan-2 expression, x-fold change: 2.4 x-fold and 1.8 x-fold | Tspan-6 expression, x-fold change: 2.2 x-fold and 1.7 x-fold | Tubulin alpha-4 expression, x-fold change: 2.7 x-fold and 2.6 x-fold | Tubulin beta class I expression, x-fold change: 2.4 x-fold and 1.9 x-fold | Tubulin, beta 2 expression, x-fold change: 1.3 x-fold and 1.2 x-fold | Unc5h2 expression, x-fold change: 1.7 x-fold and 1.3 x-fold | VEGFD expression, x-fold change: 0.1 x-fold and 0.2 x-fold | Vegfc expression, x-fold change: 0.4 x-fold and 0.6 x-fold
